System: normal cynomolgus monkeys
Experiment: GnRH antagonist plus fixed gonadotropin regimen (FSH/LH or FSH only) followed by hCG
Assay type: in vivo
Conditions: GnRH antagonist 1.0 mg/kg/day with gonadotropin 25 IU/day im, cycle days 3-9, versus gonadotropin-only controls
Description: All of the groups received a fixed regimen of gonadotropin therapy for seven consecutive days (25 IU/day/im, cycle days 3-9) followed by hCG (1,000 IU/im) on cycle day 10.

## (Ac-pClPhe^1,pClPhe^2, DTrp^3, DArg^6, DAla^10)GnRH HCl [GnRH antagonist]
  variability in response to gonadotropin treatment: less
